Patent EP3795574A1, “SYNTHESIS AND USAGE OF 1,2-DIAMINODIAMANTANE PLATINUM(II) COMPLEXES” (Justus-Liebig-Universität Gießen, priority 2019, dated 2021)

Experiments:
[1] = Solubility of the complexes in solvents
[2] = compared to cisplatin; cited from earlier work
testicular cancer = settings: cited from earlier work
[3] = tested on: deoxyguanosine monophosphate (dGMP); assay: Nucleotide binding experiment by 1H NMR, dGMP; settings: molar ratio 1:3.5, 37 °C, 66 h, DMF-d7/D2O, compared to cisplatin
From the text: (§1) Formation of DNA cross-links is the crucial part of the platinum cytotoxicity mechanism. To study diaplatin complex 1 activity on nucleotides in comparison to cisplatin we chose guanosine monophosphate (GMP) and deoxyguanosine monophosphate (dGMP) as substrates (Fig 6). The reaction between platinum complexes and GMP or dGMP causes substitution of their leaving group ligands with nucleotide forming monoadducts that quickly lose a second leaving ligand forming bisadducts. The N7 atom of the purine fragment is known to be the preferred site of attachment to platinum, thus causing easily observable downfield NMR shifts of the adjacent H8 atom. The collected ^1H NMR data during incubation of the reaction mixtures provide time-dependent changes of the H8 atom integral, thereby providing insights into the binding rates between the studied complexes (Fig 7).
(§2) A platinum complex solution in DMF-d7 (0.27 mL, 6.9 mM) was reacted with GMP or dGMP in a molar ratio 1:3.5 introduced with a NaClO4 solution in D2O (0.33 mL, 100 mM). The reaction mixture was immediately transferred into an NMR tube and ^1H NMR data were collected every hour for 66 h at 37 °C. The pH was measured immediately after the reaction mixture was prepared and at the end of the reaction at rt.

[4] = tested on: human ovarian cancer cell line A2780; assay: Cellular viability assay (resazurin / Alamar Blue, 72 h); settings: A2780, 72 h at 37 °C, compared to cisplatin; result in words
A2780cis = assay: Cellular viability assay (resazurin / Alamar Blue, 72 h), cisplatin-resistant variant; settings: 72 h at 37 °C, compared to cisplatin, result in words
[5] = tested on: guanosine monophosphate (GMP); assay: Nucleotide binding experiment by 1H NMR, GMP; settings: molar ratio 1:3.5, 37 °C, 66 h, DMF-d7/D2O, compared to cisplatin
From the text: as §1, §2

## cis-[1,2-diaminodiamantane]oxalatoplatinum(II) [(S,S)-2]
[1]; […]
  solubility: insoluble

## N.N.O=C([O-])C1(C(=O)[O-])CCC1.[Pt+2] [Carboplatin]
[2]
  increase in concentration to achieve the same effect: 20-40 fold

## N.N.[Cl][Pt][Cl] [Cisplatin, cis-dichlorodiamineplatinum(II)]
Testicular cancer
  cure rate: 90%

## cis-[1,2-diaminodiamantane]dichlorideplatinum(II) [(S,S)-1]
[3]
  rate of bisadduct formation: faster than for (R,R)-1 and cisplatin
[4]
  cytotoxicity: lowest efficacy
A2780cis
  cytotoxicity: lowest efficacy

## cis-[1,2-diaminodiamantane]dichlorideplatinum(II) [compound 1]
[1]; in DMF
  solubility: good solubility
[1]; in methanol
  solubility: somewhat soluble

## cis-[1,2-diaminodiamantane]dichlorideplatinum(II) [(R,R)-1]
[3]
  rate of bisadduct formation: faster with (R,R)-1 than with cisplatin
[5]
  rate of bisadduct formation: faster with (R,R)-1 than with cisplatin
